We go through 8 compounds from US20230203098A1, “HUMAN TRANSFERRIN RECEPTOR BINDING PEPTIDE” (priority 2020, published 2023).

Where a SMILES comes first, the peptide text is derived from it. Bridges are numbered along the chain shown (N, C = ends). [ ]: non-standard residue; d: D form. The star is where a group is joined. X2 = O=C(O)c1cc(C(=O)*)ccc1-c1c2ccc(=O)cc-2oc2cc(O)ccc12; PEG12 = NCCOCCOCCOCCOCCOCCOCCOCCOCCOCCOCCOCCOCCC(=O)O; NMeY = CN[C@@H](Cc1ccc(O)cc1)C(=O)O; NMeH = CN[C@@H](Cc1c[nH]cn1)C(=O)O; NMeF = CN[C@@H](Cc1ccccc1)C(=O)O

As usually defined, the Kd is the constant that tells how readily two partners part at equilibrium.

Sequence of transferrin receptor (hTfR) (P02786 whole entry): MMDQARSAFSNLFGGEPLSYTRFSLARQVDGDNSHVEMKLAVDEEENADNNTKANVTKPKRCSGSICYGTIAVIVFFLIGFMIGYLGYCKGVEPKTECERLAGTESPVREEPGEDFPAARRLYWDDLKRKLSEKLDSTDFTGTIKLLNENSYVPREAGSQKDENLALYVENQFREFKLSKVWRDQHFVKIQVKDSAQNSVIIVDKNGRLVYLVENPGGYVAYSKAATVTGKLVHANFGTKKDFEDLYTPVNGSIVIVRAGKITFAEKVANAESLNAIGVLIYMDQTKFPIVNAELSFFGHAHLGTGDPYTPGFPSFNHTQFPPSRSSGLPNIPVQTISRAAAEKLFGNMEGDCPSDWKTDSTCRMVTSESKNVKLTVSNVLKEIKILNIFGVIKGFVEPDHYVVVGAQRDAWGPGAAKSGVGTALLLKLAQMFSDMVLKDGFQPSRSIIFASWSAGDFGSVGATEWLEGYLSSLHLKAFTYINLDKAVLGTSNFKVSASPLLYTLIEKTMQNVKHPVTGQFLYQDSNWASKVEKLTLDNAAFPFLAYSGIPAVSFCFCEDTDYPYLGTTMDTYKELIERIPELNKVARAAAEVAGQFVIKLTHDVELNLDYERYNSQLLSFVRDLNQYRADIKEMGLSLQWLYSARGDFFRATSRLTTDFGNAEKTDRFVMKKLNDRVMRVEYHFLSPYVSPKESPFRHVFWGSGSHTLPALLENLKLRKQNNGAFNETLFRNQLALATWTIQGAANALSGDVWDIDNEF

The first experiment concerns the target transferrin receptor (hTfR) (Homo sapiens, UniProt P02786). Nature of the experiment: Intermolecular interaction evaluation test between transferrin receptor (hTfR) and peptide by surface plasmon resonance (SPR). The conditions noted are these: SPR; hTfR No. 894 variants with PEG12c linker (Table 2); read-out: KD. In kind it is binding. How it is done:
For each of the various synthesized peptides, the intermolecular interaction of the peptide with the transferrin receptor (hTfR) was tested by surface plasmon resonance (SPR) according to the following method. The specific test method is as follows.
An NTA sensor chip (Global Life Sciences Technologies Japan) was inserted in a Biacore T200 (Global Life Sciences Technologies Japan) and a prime operation was performed 3 times with a running buffer: 10 mM HEPES pH 8.0 (Nacalai Tesque), 150 mM NaCl (Nacalai Tesque), 0.05% Tween 20 (Nacalai Tesque), 0.1% BSA (Sigma-Aldrich), 1.0% DMSO (FUJIFILM Wako Pure Chemical) to create an Equilibration state at a flow rate of 30 µL/min. After reacting with 350 mM EDTA solution for 60 seconds at a flow rate of 10 µL/min then reacting with 0.5 mM NiCl2 solution (Kishida Chemical) for 60 seconds at a flow rate of 10 µL/min, the NTA sensor chip was washed with 3 mM EDTA solution (Nacalai Tesque) for 60 seconds at a flow rate of 10 µL/min. After mixing 50 µL each of 60 mM EDC solution (Global Life Sciences Technologies Japan) and 650 mM NHS solution (Global Life Sciences Technologies Japan), the mixture was reacted for 420 seconds at a flow rate of 10 µL/min. By diluting with the running buffer, 150 µL of 3.2 µM hTfR solution was prepared and used for reaction for 600 seconds at a flow rate of 10 µL/min, thereby immobilizing hTfR on the NTA sensor chip. After immobilization, capping was performed by reacting with 1.0 M ethanolamine aqueous solution (Global Life Sciences Technologies Japan) for 420 seconds at a flow rate of 10 µL/min. A peptide dissolution liquid prepared to 10 mM in the DMSO solution was diluted with the running buffer to a final concentration of 10 µM so as to become the peptide dissolution liquid, then peptide solutions of 100 nM, 50 nM, 25 nM, 10 nM and 5 nM were prepared. Kinetics of the peptide to hTfR was acquired by SPR measurement using the above-mentioned samples. Single-cycle kinetics was used as a kinetic evaluation model and curve fitting was performed using Biacore T200 Evaluation Software Version 3.0 (Global Life Sciences Technologies Japan). An obtained sensorgram was subjected to curve fitting using the least-squares method, and the binding of the peptide to hTfR was evaluated by obtaining KD values. […] A chemical structure of hTfR No. 894 is as follows.
The variant peptides were synthesized according to Example 1 unless otherwise stated in Example 9 or 10. The linker-added peptides were synthesized according to Example 1, except that Fmoc-NH-SAL-PEG resin (Watanabe Chemical Industries) was used as a resin for the peptide synthesis when the linker was PEG. The peptide, to which a peptide, a fatty acid, PEG, or a conjugate thereof is added as a linker, was also synthesized according to Example 1, unless otherwise stated in Example 9 or 10.
(In general: Surface plasmon resonance follows binding to a sensor surface in real time, without labels.)
Take `CC[C@H](C)[C@@H]1NC(=O)[C@H](Cc2ccc(O)cc2)NC(=O)[C@H](C)NC(=O)[C@H](CC(N)=O)NC(=O)[C@H](Cc2c[nH]c3ccccc23)NC(=O)[C@H](C(C)C)NC(=O)[C@H](Cc2ccccc2)N(C)C(=O)[C@H](C(C)C)NC(=O)[C@H](C)NC(=O)CSC[C@@H](C(=O)NCCOCCOCCOCCOCCOCCOCCOCCOCCOCCOCCOCCOCCC(N)=O)NC(=O)[C@H](Cc2ccc(O)cc2)N(C)C(=O)[C@H](Cc2ccc(O)cc2)NC(=O)[C@H](CCCNC(=N)N)NC(=O)[C@H](CCCNC(=N)N)NC(=O)[C@H]([C@@H](C)CC)NC1=O` [compound 140] ({CH2CO}-AV[NMeF]VWNAYIIRRY[NMeY]C[PEG12]-NH2; thioether N-15): the equilibrium dissociation constant (Kd) was 1 to 100 nM.

Still in this experiment, the particulars now being: SPR; linker and payload (FITC, VivoTag) conjugates; read-out: KD.
Regarding `CC[C@H](C)[C@@H]1NC(=O)[C@H](Cc2ccc(O)cc2)NC(=O)[C@H](Cc2ccc(O)cc2)NC(=O)[C@H](CC(N)=O)NC(=O)[C@H](Cc2c[nH]c3ccccc23)NC(=O)[C@H](C(C)C)NC(=O)[C@H](Cc2ccccc2)NC(=O)[C@H](C(C)C)NC(=O)[C@H](C)NC(=O)CSC[C@@H](C(=O)NCCOCCOCCOCCOCCOCCOCCOCCOCCOCCOCCOCCOCCC(=O)N[C@@H](CCCCNC(=O)c2ccc(-c3c4ccc(=O)cc-4oc4cc(O)ccc34)c(C(=O)O)c2)C(N)=O)NC(=O)[C@H](Cc2ccc(O)cc2)N(C)C(=O)[C@H](Cc2ccc(O)cc2)NC(=O)[C@H](CCCNC(=N)N)NC(=O)[C@H](CCCNC(=N)N)NC(=O)[C@H]([C@@H](C)CC)NC1=O` [compound 147], the Kd is below 1 nM. As to `CC[C@H](C)[C@@H]1NC(=O)[C@H](Cc2ccc(O)cc2)NC(=O)[C@H](Cc2ccc(O)cc2)NC(=O)[C@H](CC(N)=O)NC(=O)[C@H](Cc2c[nH]c3ccccc23)NC(=O)[C@H](C(C)C)NC(=O)[C@H](Cc2ccccc2)NC(=O)[C@H](C(C)C)NC(=O)[C@H](C)NC(=O)CSC[C@@H](C(=O)NCCOCCOCCOCCOCCOCCOCCOCCOCCOCCOCCOCCOCCC(=O)N[C@@H](CCCCNC(=O)c2ccc(-c3c4ccc(=O)cc-4oc4cc(O)ccc34)c(C(=O)O)c2)C(N)=O)NC(=O)[C@H](CCCNC(=N)N)NC(=O)[C@H](Cc2ccccc2)NC(=O)[C@H](CCCNC(=N)N)NC(=O)[C@H](CC(=O)O)NC(=O)[C@H]([C@@H](C)CC)NC1=O` [compound 148] ({CH2CO}-AVFVWNYYIIDRFRC[PEG12]K(X2)-NH2; thioether N-15), the Kd fell in the range of 1 to 100 nM.

As for `CC[C@H](C)[C@@H]1NC(=O)[C@H](Cc2ccc(O)cc2)NC(=O)[C@H](Cc2ccc(O)cc2)NC(=O)[C@H](CC(N)=O)NC(=O)[C@H](Cc2c[nH]c3ccccc23)NC(=O)[C@H](C(C)C)NC(=O)[C@H](Cc2ccccc2)NC(=O)[C@H](C(C)C)NC(=O)[C@H](C)NC(=O)CSC[C@@H](C(=O)NCCOCCOCCOCCOCCOCCOCCOCCOCCOCCOCCOCCOCCC(=O)N[C@@H](CCCCNC(=O)c2ccc(-c3c4ccc(=O)cc-4oc4cc(O)ccc34)c(C(=O)O)c2)C(N)=O)NC(=O)[C@H](Cc2c[nH]cn2)N(C)C(=O)[C@H](CO)NC(=O)[C@H](CCCNC(=N)N)NC(=O)[C@H](Cc2ccccc2)NC(=O)[C@H](CCCNC(=N)N)NC(=O)[C@H](CC(=O)O)NC(=O)[C@H]([C@@H](C)CC)NC1=O` [compound 149] ({CH2CO}-AVFVWNYYIIDRFRS[NMeH]C[PEG12]K(X2)-NH2; thioether N-17), the Kd lay within 1 to 100 nM.

Regarding `CC[C@H](C)[C@@H]1NC(=O)[C@H](Cc2ccc(O)cc2)NC(=O)[C@H](Cc2ccc(O)cc2)NC(=O)[C@H](CC(N)=O)NC(=O)[C@H](Cc2c[nH]c3ccccc23)NC(=O)[C@H](C(C)C)NC(=O)[C@H](Cc2ccccc2)NC(=O)[C@H](C(C)C)NC(=O)[C@H](C)NC(=O)CSC[C@@H](C(=O)NCCOCCOCCOCCOCCOCCOCCOCCOCCOCCOCCOCCOCCC(=O)N[C@@H](CCCCNC(=O)c2ccc(-c3c4ccc(=O)cc-4oc4cc(O)ccc34)c(C(=O)O)c2)C(N)=O)NC(=O)[C@H](Cc2ccc(O)cc2)N(C)C(=O)[C@H](CO)NC(=O)[C@H](CCCNC(=N)N)NC(=O)[C@H](Cc2ccccc2)NC(=O)[C@H](CCCNC(=N)N)NC(=O)[C@H](CC(=O)O)NC(=O)[C@H]([C@@H](C)CC)NC1=O` [compound 150] ({CH2CO}-AVFVWNYYIIDRFRS[NMeY]C[PEG12]K(X2)-NH2; thioether N-17), the dissociation constant Kd lay in the range of 1 to 100 nM.

`CC[C@H](C)[C@@H]1NC(=O)[C@H](Cc2ccc(O)cc2)NC(=O)[C@H](Cc2ccc(O)cc2)NC(=O)[C@H](CC(N)=O)NC(=O)[C@H](Cc2c[nH]c3ccccc23)NC(=O)[C@H](C(C)C)NC(=O)[C@H](Cc2ccccc2)NC(=O)[C@H](C(C)C)NC(=O)[C@H](C)NC(=O)CSC[C@@H](C(=O)NCCOCCOCCOCCOCCOCCOCCOCCOCCOCCOCCOCCOCCC(=O)N[C@@H](CCCCNC(=O)c2ccc(-c3c4ccc(=O)cc-4oc4cc(O)ccc34)c(C(=O)O)c2)C(N)=O)NC(=O)[C@H](CC(N)=O)NC(=O)[C@@H]2CCCN2C(=O)[C@H](C(C)C)NC(=O)[C@H](CC(N)=O)NC(=O)[C@H](CCCNC(=N)N)NC(=O)CNC(=O)[C@H](C(C)C)NC1=O` [compound 152] ({CH2CO}-AVFVWNYYIVGRNVPNC[PEG12]K(X2)-NH2; thioether N-17): the equilibrium dissociation constant (Kd) is below 1 nM.

On to `CC[C@H](C)[C@@H]1NC(=O)[C@H](CCCNC(=N)N)NC(=O)[C@H](CC(N)=O)NC(=O)[C@H](C)NC(=O)CSC[C@@H](C(=O)NCCOCCOCCOCCOCCOCCOCCOCCOCCOCCOCCOCCOCCC(=O)N[C@@H](CCCCNC(=O)c2ccc(-c3c4ccc(=O)cc-4oc4cc(O)ccc34)c(C(=O)O)c2)C(N)=O)NC(=O)[C@H](Cc2ccc(O)cc2)N(C)C(=O)[C@H](CCCNC(=N)N)NC(=O)[C@@H]2CCCN2C(=O)[C@H]([C@@H](C)CC)NC(=O)[C@H]([C@@H](C)CC)NC(=O)[C@H](Cc2ccc(O)cc2)NC(=O)[C@H](Cc2ccc(O)cc2)NC(=O)[C@H](CC(N)=O)NC(=O)[C@H](Cc2c[nH]c3ccccc23)NC(=O)[C@H](C(C)C)NC(=O)[C@H](Cc2ccccc2)NC(=O)[C@H](C(C)C)NC1=O` [compound 153] ({CH2CO}-ANRIVFVWNYYIIPR[NMeY]C[PEG12]K(X2)-NH2; thioether N-17), for which the Kd lay within 1 to 100 nM. As to `CC[C@H](C)[C@@H]1NC(=O)[C@H](CCCNC(=N)N)NC(=O)[C@H](CC(N)=O)NC(=O)[C@H](C)NC(=O)CSC[C@@H](C(=O)NCCOCCOCCOCCOCCOCCOCCOCCOCCOCCOCCOCCOCCC(=O)N[C@@H](CCCCNC(=O)c2ccc(-c3c4ccc(=O)cc-4oc4cc(O)ccc34)c(C(=O)O)c2)C(N)=O)NC(=O)[C@H](Cc2c[nH]cn2)N(C)C(=O)[C@H](CCCNC(=N)N)NC(=O)[C@@H]2CCCN2C(=O)[C@H]([C@@H](C)CC)NC(=O)[C@H]([C@@H](C)CC)NC(=O)[C@H](Cc2ccc(O)cc2)NC(=O)[C@H](Cc2ccc(O)cc2)NC(=O)[C@H](CC(N)=O)NC(=O)[C@H](Cc2c[nH]c3ccccc23)NC(=O)[C@H](C(C)C)NC(=O)[C@H](Cc2ccccc2)NC(=O)[C@H](C(C)C)NC1=O` [compound 154] ({CH2CO}-ANRIVFVWNYYIIPR[NMeH]C[PEG12]K(X2)-NH2; thioether N-17), the Kd fell in the range of 1 to 100 nM.
